Test results published in ChEMBL document CHEMBL1201862, “PubChem BioAssay data set” (2004).
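Where inhibition never reached the appropriate level, the endpoint shown equals the highest concentration tested. Otherwise, values were interpolated linearly from a five-concentration, 48-hour dose response in 96-well plates. GI50: concentration for 50% inhibition of growth.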 Activity calls are given as the source filed them. Rule as the data show it: active = GI50 up to about 1.1 µM and inactive = higher.

Key:
Test in all cases: NCI tumour cell line growth inhibition, 48 h
PC-3 = system: PC-3
A498 = system: A498
NCI-H522 = system: NCI-H522
SK-OV-3 = system: SK-OV-3
SN12C = system: SN12C
T47D = system: T47D
BT-549 = system: BT-549
ACHN = system: ACHN
HOP-62 = system: HOP-62
SF-539 = system: SF-539
MDA-N = system: MDA-N
OVCAR-5 = system: OVCAR-5
K562 = system: K562
SF-268 = system: SF-268
HOP-92 = system: HOP-92
RPMI-8226 = system: RPMI-8226
OVCAR-8 = system: OVCAR-8
RXF 393 = system: RXF 393
CCRF-CEM = system: CCRF-CEM
CAKI-1 = system: CAKI-1

Compound	GI50 (PC-3)	GI50 (A498)	GI50 (NCI-H522)	GI50 (SK-OV-3)	GI50 (SN12C)	GI50 (T47D)	GI50 (BT-549)	GI50 (ACHN)	GI50 (HOP-62)	GI50 (SF-539)	GI50 (MDA-N)	GI50 (OVCAR-5)	GI50 (K562)	GI50 (SF-268)	GI50 (HOP-92)	GI50 (RPMI-8226)	GI50 (OVCAR-8)	GI50 (RXF 393)	GI50 (CCRF-CEM)	GI50 (CAKI-1)
O=S1(=O)Cc2ccc3c4c2-c2c(ccc5ccc(c-4c25)CS(=O)(=O)C3)C1	93.1 µM (inactive)	> 100 µM (inactive)	46.8 µM (inactive)	> 100 µM (inactive)	82.4 µM (inactive)	55.3 µM (inactive)	91.8 µM (inactive)	20.7 µM (inactive)	> 100 µM (inactive)	51.9 µM (inactive)	> 100 µM (inactive)	> 100 µM (inactive)	26.7 µM (inactive)	53.1 µM (inactive)	89.9 µM (inactive)	20 µM (inactive)	90.2 µM (inactive)	–	–	–
CCOC(=O)/C(C#N)=C\c1ccc(N(CCC(=O)O)CCC(=O)O)c(I)c1	> 10 µM (inactive)	–	> 10 µM (inactive)	> 10 µM (inactive)	> 10 µM (inactive)	> 10 µM (inactive)	> 10 µM (inactive)	> 10 µM (inactive)	> 10 µM (inactive)	> 10 µM (inactive)	> 10 µM (inactive)	–	> 10 µM (inactive)	> 10 µM (inactive)	> 10 µM (inactive)	> 10 µM (inactive)	> 10 µM (inactive)	> 10 µM (inactive)	> 10 µM (inactive)	> 10 µM (inactive)
N#CC1(C#N)C(c2ccccc2)C=CC(c2ccc([N+](=O)[O-])cc2)C1(C#N)C#N (centres undefined)	12.2 µM (inactive)	16.6 µM (inactive)	3.21 µM (inactive)	18.5 µM (inactive)	4.83 µM (inactive)	2.61 µM (inactive)	10.4 µM (inactive)	3.43 µM (inactive)	17.3 µM (inactive)	2.81 µM (inactive)	6.22 µM (inactive)	17.1 µM (inactive)	3.01 µM (inactive)	17.5 µM (inactive)	3.43 µM (inactive)	2.91 µM (inactive)	11.2 µM (inactive)	–	0.278 µM (active)	3.66 µM (inactive)
c1ccc2c(c1)cc1n2CCc2c-1[nH]c1ccccc21	> 10 µM (inactive)	–	> 10 µM (inactive)	> 10 µM (inactive)	> 10 µM (inactive)	3.01 µM (inactive)	> 10 µM (inactive)	> 10 µM (inactive)	> 10 µM (inactive)	> 10 µM (inactive)	> 10 µM (inactive)	> 10 µM (inactive)	> 10 µM (inactive)	> 10 µM (inactive)	> 10 µM (inactive)	> 10 µM (inactive)	> 10 µM (inactive)	> 10 µM (inactive)	> 10 µM (inactive)	> 10 µM (inactive)
CCOC(=O)c1cn(CC)c2cc3c(cc2c1=O)CCS3(=O)=O	> 100 µM (inactive)	> 100 µM (inactive)	–	> 100 µM (inactive)	> 100 µM (inactive)	> 100 µM (inactive)	> 100 µM (inactive)	> 100 µM (inactive)	> 100 µM (inactive)	> 100 µM (inactive)	> 100 µM (inactive)	> 100 µM (inactive)	> 100 µM (inactive)	> 100 µM (inactive)	> 100 µM (inactive)	–	> 100 µM (inactive)	> 100 µM (inactive)	> 100 µM (inactive)	–
Cc1ccc(O)c(C(=O)/C=C/c2ccccc2)c1	> 100 µM (inactive)	–	5.81 µM (inactive)	> 100 µM (inactive)	> 100 µM (inactive)	> 100 µM (inactive)	> 100 µM (inactive)	> 100 µM (inactive)	> 100 µM (inactive)	> 100 µM (inactive)	> 100 µM (inactive)	> 100 µM (inactive)	> 100 µM (inactive)	> 100 µM (inactive)	> 100 µM (inactive)	> 100 µM (inactive)	> 100 µM (inactive)	> 100 µM (inactive)	> 100 µM (inactive)	> 100 µM (inactive)
CCCCc1ccc(N2C(=O)c3cc([N+](=O)[O-])cnc3S2(=O)=O)cc1	> 100 µM (inactive)	> 100 µM (inactive)	–	> 100 µM (inactive)	> 100 µM (inactive)	> 100 µM (inactive)	87.7 µM (inactive)	> 100 µM (inactive)	> 100 µM (inactive)	> 100 µM (inactive)	> 100 µM (inactive)	> 100 µM (inactive)	> 100 µM (inactive)	24.2 µM (inactive)	0.424 µM (active)	> 100 µM (inactive)	> 100 µM (inactive)	–	> 10 µM (inactive)	> 100 µM (inactive)
CN(C)CCOc1ccc([N+](=O)[O-])c2cccnc12	> 100 µM (inactive)	> 100 µM (inactive)	61.9 µM (inactive)	> 100 µM (inactive)	60.4 µM (inactive)	> 100 µM (inactive)	> 100 µM (inactive)	> 100 µM (inactive)	> 100 µM (inactive)	> 100 µM (inactive)	79.1 µM (inactive)	> 100 µM (inactive)	97.3 µM (inactive)	> 100 µM (inactive)	–	–	> 100 µM (inactive)	–	> 100 µM (inactive)	> 100 µM (inactive)
